“And” between values parts separate entries of the source, which are not always exact repeats. Equal values may be shown once. Values belong to the molecule of their own block, whether it stands above or below them.
Test: solvent given as SMILES
[1] = in CC(C)(C)c1ccc(-n2c3ccc([Si](c4ccccc4)(c4ccccc4)c4ccccc4)cc3c3cc([Si](c4ccccc4)(c4ccccc4)c4ccccc4)ccc32)cc1

SMILES: CC1(C)Nc2cc(Cl)ccc2-c2[nH]c3ccccc3c(=O)c21
fluorescence lifetime (in C1CCOC1): 7.47 ns
fluorescence lifetime (in CC#N): 8.72 ns
fluorescence lifetime (in CCCCO): 9.26 ns
fluorescence lifetime (in CCCO): 9.2 ns
fluorescence lifetime (in CCO): 9 ns
fluorescence lifetime (in CCOC(C)=O): 7.52 ns
fluorescence lifetime (in CN(C)C=O): 9.36 ns
fluorescence lifetime (in CO): 8.67 ns
fluorescence lifetime (in CS(C)=O): 9.91 ns
fluorescence lifetime (in Cc1ccccc1): 6.68 ns
fluorescence lifetime (in ClC(Cl)(Cl)Cl): 4.8 ns
fluorescence lifetime (in ClCCl): 8.06 ns
fluorescence lifetime (in O): 8.68 ns
fluorescence lifetime (in c1ccccc1): 6.71 ns

SMILES: Cc1cc(C)c(C2=[N+]3C(=Cc4c(C)cc(C)n4[B-]3(F)F)c3ccccc32)[nH]1
fluorescence lifetime (in C1CCOC1): 3.75 ns
fluorescence lifetime (in CC#N): 4.34 ns
fluorescence lifetime (in CCCCCC): 7.17 ns
fluorescence lifetime (in CO): 4.98 ns
fluorescence lifetime (in Cc1ccccc1): 6.14 ns
fluorescence lifetime (in ClCCl): 6.4 ns

SMILES: CN(C)c1ccc(C2=Nc3sc4ccccc4[n+]3[B-](F)(F)O2)cc1
fluorescence lifetime (in Cc1ccccc1): 1.74 ns

fluorescence lifetime (in CC#N): 1.1 ns and 1.24 ns
SMILES: COc1ccc(-c2nc(-c3ccc(-c4nc(-c5ccc(OC)cc5)c(-c5ccc(OC)cc5)[nH]4)cc3)[nH]c2-c2ccc(OC)cc2)cc1

fluorescence lifetime (in C1CCOC1): 3.2 ns
SMILES: CCC1(CC)c2ccccc2-c2c1c1c(c3c2C(CC)(CC)c2cc(B(c4c(C)cc(C)cc4C)c4c(C)cc(C)cc4C)ccc2-3)C(CC)(CC)c2ccccc2-1

fluorescence lifetime (in O): 0.74 ns
SMILES: Cc1cn(CCCn2cc(C)c(=O)[nH]c2=O)c(=O)nc1-n1cncn1

fluorescence lifetime (in CC#N): 2.47 ns
fluorescence lifetime (in CCO): 3 ns
fluorescence lifetime (in CN(C)C=O): 2.91 ns
fluorescence lifetime (in O): 1.78 ns
SMILES: CCN(CC)c1ccc2c(-c3ccc(S(=O)(=O)O)cc3S(=O)(=O)[O-])c3ccc(=[N+](CC)CC)cc-3oc2c1

fluorescence lifetime (in ClC(Cl)Cl): 3.5 ns
SMILES: Cc1cc(C)c(C2=C3C=CC=[N+]3[B-]3(c4ccc5ccc6cccc7ccc4c5c67)Oc4cc(O)cc5c6ccc(C)cc6c6cc2n3c6c45)c(C)c1 (stereo not given)

fluorescence lifetime (in CC#N): 0.0001 ns
SMILES: Cc1cn(C(F)(F)F)c(=O)[nH]c1=O

SMILES: N#C/C=C/c1ccc2ccc3cccc4ccc1c2c34
fluorescence lifetime (in C1CCOC1): 3.2 ns
fluorescence lifetime (in CC#N): 3 ns
fluorescence lifetime (in CC(C)=O): 3.1 ns

fluorescence lifetime (in ClC(Cl)Cl): 2.41 ns
SMILES: CC1(C)CC[N+]2=c3c(cc4c(c31)Oc1cc3c(cc1C=4c1ccccc1C(=O)O)C(c1ccccc1C(=O)O)=c1cc4c5c(c1O3)C(C)(C)CC[N+]=5CCC4)CCC2

fluorescence lifetime (in CC#N): 5.84 ns
fluorescence lifetime (in CCOC(C)=O): 3.77 ns
fluorescence lifetime (in CN(C)C=O): 6.33 ns
fluorescence lifetime (in CS(C)=O): 6.78 ns
fluorescence lifetime (in c1ccccc1): 2 ns
SMILES: CCOC(=O)CN(CC(=O)OCC)c1ccc(-c2cc(-c3ccncc3)nc(-c3ccncc3)c2)cc1

fluorescence lifetime (in ClC(Cl)Cl): 1.69 ns
SMILES: CC(C)(C)c1ccc(C2=c3sc(-c4ccc(C(C)(C)C)cc4)cc3=[N+]3C2=Nc2c(-c4ccc(C(C)(C)C)cc4)c4sc(-c5ccc(C(C)(C)C)cc5)cc4n2[B-]3(F)F)cc1

fluorescence lifetime (in ClCCl): 1.94 ns
SMILES: Oc1ccc(Br)cc1-c1nc2c(c3c1-c1ccccc1CC3)-c1ccccc1CC2

fluorescence lifetime (in CCCCCCCCCC): 3.1 ns
fluorescence lifetime (in CCCCO): 1.5 ns
SMILES: CC/C=C/C=C/C=C/C=C/CCCCCCCC(=O)O

fluorescence lifetime (in ClC(Cl)Cl): 8.5 ns
SMILES: CCCCCCCCCCCCSc1cc2c3c(ccc4c5c(SCCCCCCCCCCCC)cc6c7c(ccc(c1c34)c75)C(=O)N(C1CCCCC1)C6=O)C(=O)N(C1CCCCC1)C2=O

fluorescence lifetime (in CS(C)=O): 0.55 ns
SMILES: Brc1ccc(-c2nc(-c3ccc(-c4nc(-c5ccc(Br)cc5)c(-c5ccc(Br)cc5)[nH]4)cc3)[nH]c2-c2ccc(Br)cc2)cc1

fluorescence lifetime (in C1CCOC1): 0.42 ns
SMILES: Cc1csc(C)c1C1=C(c2c(C)sc(-c3ccc(-c4nc(-c5ccccc5)c(-c5ccccc5)[nH]4)cc3)c2C)C(F)(F)C(F)(F)C1(F)F

fluorescence lifetime (in CC#N): 2.67 ns
fluorescence lifetime (in CCOC(C)=O): 2.08 ns
fluorescence lifetime (in CO): 1.86 ns
SMILES: COC(=O)C[C@H](Cc1c[nH]c2ccccc12)NC(=O)[C@H](CC(=O)N[C@@H](CC1=CCc2ccccc21)C(=O)OC)NC(=O)[C@H](Cc1c[nH]c2ccccc12)NC(=O)OC(C)(C)C

fluorescence lifetime (in C1CCOC1): 1.4 ns
SMILES: COc1ccc(C(=Cc2ccc(/C=C(\C#N)c3ccc([N+](=O)[O-])cc3)cc2)c2ccc(OC)cc2)cc1

fluorescence lifetime (in CCCCCCC): 102 ns
SMILES: c1ccc(Nc2nc(Nc3ccccc3)nc(Nc3cc4ccc5cccc6ccc(c3)c4c56)n2)cc1

SMILES: Cc1cc(C)c(C)c(B(c2c(C)c(C)c(N3c4ccccc4Oc4ccccc43)c(C)c2C)c2c(C)c(C)c(N3c4ccccc4Oc4ccccc43)c(C)c2C)c1C
fluorescence lifetime [1]: 2.9 ns

SMILES: Cc1ccc(-c2cc(-c3ccc(N(C)C)cc3)c3c(N)nc(N4CCCC4)c(C#N)c3n2)cc1
fluorescence lifetime (in CC#N): 7.3 ns
fluorescence lifetime (in CC(C)=O): 10.3 ns
fluorescence lifetime (in CC(C)O): 11.2 ns
fluorescence lifetime (in CO): 3.6 ns
fluorescence lifetime (in ClC(Cl)Cl): 11.5 ns
fluorescence lifetime (in ClCCl): 12.6 ns
fluorescence lifetime (in c1ccccc1): 10.7 ns

SMILES: Cc1cc(C)c(B(c2ccccc2N(c2ccccc2)c2ccccc2)c2c(C)cc(C)cc2C)c(C)c1
fluorescence lifetime (in Cc1ccccc1): 27 ns

fluorescence lifetime (in C1CCOC1): 0.5 ns
fluorescence lifetime (in ClCCl): 0.5 ns
SMILES: CCC(CC)COC1=CC2=C3c4cc(OCC(CC)CC)c(-c5cccs5)n4[B-](F)(F)[n+]4nnn(c43)[B-](F)(F)[N+]2=C1c1cccs1

fluorescence lifetime (in ClC(Cl)Cl): 1.4 ns
SMILES: COc1ccc2cc(-c3ccc(-c4cc5ccc(OC)cc5oc4=O)cc3)c(=O)oc2c1

SMILES: Cc1cc(C)c(C)c(B(c2c(C)c(C)cc(C)c2C)c2c(C)c(C)c(N3c4ccccc4Oc4ccccc43)c(C)c2C)c1C
fluorescence lifetime [1]: 5.9 ns

SMILES: CN(C)c1ccc(C#Cc2cc3ccc4cc(C#Cc5ccc(N(C)C)cc5)cc5ccc(c2)c3c45)cc1
fluorescence lifetime (in Cc1ccccc1): 60 ns

fluorescence lifetime (in ClCCl): 0.75 ns
SMILES: c1ccc2c(c1)c1ccc3cccc4c3c1c2c1c2cccc3ccc5c6ccccc6c(c5c32)c41

fluorescence lifetime (in C1CCOC1): 1.23 ns
fluorescence lifetime (in CC#N): 1.79 ns
fluorescence lifetime (in CN(C)C=O): 1.61 ns
fluorescence lifetime (in ClC(Cl)Cl): 1.14 ns
fluorescence lifetime (in c1ccccc1): 1.65 ns
SMILES: N#Cc1ccc(C#Cc2ccc(C#Cc3ccc(C#Cc4ccccc4C#N)cc3C#N)cc2C#N)cc1

SMILES: Cc1c2oc3c(C)c(N)cc(C(=O)NC4OC(=O)C(C(C)C)N(C)C(=O)CN(C)C(=O)C5CCCN5C(=O)C(C(C)C)NC4=O)c3nc-2c(C(=O)NC2OC(=O)C(C(C)C)N(C)C(=O)CN(C)C(=O)C3CCCN3C(=O)C(C(C)C)NC2=O)c(N)c1=O (stereo not given)
fluorescence lifetime (in C1CCCCC1): 1.07 ns
fluorescence lifetime (in CC#N): 1.54 ns
fluorescence lifetime (in CC(=O)O): 0.49 ns
fluorescence lifetime (in CC(C)=O): 0.93 ns
fluorescence lifetime (in CCCCO): 1.5 ns
fluorescence lifetime (in CCCCOC(C)=O): 1.1 ns
fluorescence lifetime (in CCCO): 1.34 ns
fluorescence lifetime (in CCN(CC)CC): 0.62 ns
fluorescence lifetime (in CCO): 1.22 ns
fluorescence lifetime (in CCOC(C)=O): 1.19 ns
fluorescence lifetime (in CO): 0.5 ns
fluorescence lifetime (in CS(C)=O): 1.8 ns
fluorescence lifetime (in Cc1ccccc1): 1.23 ns
fluorescence lifetime (in ClC(Cl)Cl): 1.02 ns
fluorescence lifetime (in ClCCCl): 1.16 ns
fluorescence lifetime (in O): 0.75 ns
fluorescence lifetime (in O=[N+]([O-])c1ccccc1): 0.37 ns
fluorescence lifetime (in [2H]O[2H]): 1.08 ns
fluorescence lifetime (in c1ccccc1): 1.22 ns
fluorescence lifetime (in c1ccncc1): 1.53 ns

fluorescence lifetime (in CCCCCC): 6.62 ns
fluorescence lifetime (in CO): 6.69 ns
fluorescence lifetime (in ClCCl): 6.16 ns
SMILES: CC1=C2C=CC=[N+]2[B-](F)(F)n2cccc21

fluorescence lifetime (in CC#N): 2.3 ns
SMILES: COc1cc2cc(/C=C/c3ccc(/C=C/c4ccc(/C=C(\C#N)C(=O)O)cc4)cc3)c(=O)oc2cc1OC

fluorescence lifetime (in ClCCl): 3.7 ns
SMILES: [O-][n+]1c(-c2ccc(Br)cc2)cc(N2CCOCC2)nc1/C=C/c1ccccc1

fluorescence lifetime (in CC#N): 1.86 ns
fluorescence lifetime (in CCCCCC): 0.62 ns
SMILES: CN(c1ccccc1)c1ccc(/C=C/c2ccccc2)cc1

fluorescence lifetime (in ClCCl): 2.9 ns
SMILES: CCN(CC)c1ccc2cc(C#N)c(=N)oc2c1

fluorescence lifetime (in ClC(Cl)Cl): 6.3 ns
SMILES: CC(C)(C)c1ccc(Oc2cc3c4c(cc(Oc5ccc(C(C)(C)C)cc5)c5c6c(Oc7ccc(C(C)(C)C)cc7)cc7c8c(cc(Oc9ccc(C(C)(C)C)cc9)c(c2c45)c86)C(=O)N(Cc2ccccc2)C7=O)C(=O)N(Cc2ccccc2)C3=O)cc1

SMILES: CC(=O)[B-]1(C(C)=O)OC(c2ccc3ccccc3c2)=CC(c2ccc3ccccc3c2)=[O+]1
fluorescence lifetime (in CC#N): 5.5 ns
fluorescence lifetime (in ClC(Cl)(Cl)Cl): 1.1 ns

SMILES: Cc1cc(-c2ccccc2)nc2c1ccc1nc(-c3ccccc3)cn12
fluorescence lifetime (in CC#N): 6.97 ns
fluorescence lifetime (in CCCCOC(C)=O): 6.04 ns
fluorescence lifetime (in CCOC(C)=O): 5.98 ns
fluorescence lifetime (in CO): 5.18 ns
fluorescence lifetime (in c1ccccc1): 5.55 ns

fluorescence lifetime (in ClC(Cl)Cl): 5.16 ns
SMILES: CC(C)n1c(=O)c2cc3ccc4cccc5ccc(c2c1=O)c3c45

SMILES: CCCCCCC(CCCCCC)N1C(=O)c2cccc3c(-c4ccc(-c5ccc(OC)cc5)cc4)ccc(c23)C1=O
fluorescence lifetime (in CCCCCC): 1.35 ns
fluorescence lifetime (in CCCCCCCCCCCCCC): 1.43 ns
fluorescence lifetime (in CCCCCCCCCCCO): 3.21 ns
fluorescence lifetime (in CCCCO): 1.05 ns
fluorescence lifetime (in CN(C)C=O): 1.91 ns
fluorescence lifetime (in Cc1ccccc1): 1.4 ns
fluorescence lifetime (in ClC(Cl)Cl): 2.93 ns

SMILES: c1ccc(N2c3ccc4ccccc4c3-c3c4ccccc4cc[n+]3[B-]2(c2ccccc2)c2ccccc2)cc1
fluorescence lifetime (in Cc1ccccc1): 6.31 ns

SMILES: c1ccc(-c2nc(-c3ccccc3)nc(-c3ccc(-n4c5ccccc5c5ccc6c7ccccc7n(-c7ccccc7)c6c54)cc3)n2)cc1
fluorescence lifetime (in O=P(c1ccccc1)(c1ccccc1)c1ccc2oc3ccc(P(=O)(c4ccccc4)c4ccccc4)cc3c2c1): 11.9 ns

fluorescence lifetime (in CCCCCC): 54.7 ns
fluorescence lifetime (in CO): 64.5 ns
fluorescence lifetime (in ClCCl): 37.6 ns
SMILES: Cc1ccc2ccc3c(C)ccc4ccc1c2c43

fluorescence lifetime (in CC#N): 4.37 ns
fluorescence lifetime (in CCCCCC): 5.4 ns
fluorescence lifetime (in ClCCl): 4.39 ns
SMILES: CCCCCCCCOc1ccc(C2=C3C(C)=C(C#Cc4ccc(B(c5c(C)cc(C)cc5C)c5c(C)cc(C)cc5C)cc4)C(C)=[N+]3[B-](F)(F)n3c(C)c(C#Cc4ccc(B(c5c(C)cc(C)cc5C)c5c(C)cc(C)cc5C)cc4)c(C)c32)cc1

SMILES: CN(C)c1ccc2nc(/C=C/c3ccccc3)c(=O)oc2c1
fluorescence lifetime (in C1CCCCC1): 2.82 ns
fluorescence lifetime (in C1COCCO1): 3.52 ns
fluorescence lifetime (in CC#N): 3.95 ns
fluorescence lifetime (in CC(C)=O): 3.82 ns
fluorescence lifetime (in CCCCCCC): 2.8 ns
fluorescence lifetime (in CCO): 3.77 ns
fluorescence lifetime (in CCOC(C)=O): 3.58 ns
fluorescence lifetime (in CN(C)C=O): 3.65 ns
fluorescence lifetime (in CS(C)=O): 3.58 ns
fluorescence lifetime (in Cc1ccccc1): 3 ns
fluorescence lifetime (in ClC(Cl)Cl): 3.74 ns
fluorescence lifetime (in ClCCl): 3.83 ns

SMILES: O=C1c2ccccc2-c2cnccc21
fluorescence lifetime (in CC#N): 6.7 ns
fluorescence lifetime (in CCOC(C)=O): 2.4 ns
fluorescence lifetime (in Cc1ccccc1): 2.2 ns
fluorescence lifetime (in ClCCl): 6.1 ns

fluorescence lifetime (in O): 11.5 ns
SMILES: CCOC(=O)CCCCCn1c2ccc(N)cc2c(=O)c2cc(N)ccc21

From the Deep4Chem optical property database
